Measurements taken from the CombiSolv-Exp solvation set (Vermeire and Green 2021).

Assay: solvent given as SMILES
[1] = in CCCCCCCCC=CCCCCCCCC(=O)OCC(COC(=O)CCCCCCCC=CCCCCCCCC)OC(=O)CCCCCCCC=CCCCCCCCC

With `NC=O` the “solvation free energy, 298 K” value (in CC(C)c1ccccc1) was -4.1 kcal/mol, the “solvation free energy, 298 K” value (in CCc1ccccc1) was -4.58 kcal/mol and the “solvation free energy, 298 K” value (in O) was -10.2 kcal/mol.
With `CCCCC=O` the “solvation free energy, 298 K” value (in CC(C)CC(C)(C)C) was -4.24 kcal/mol, the “solvation free energy, 298 K” value (in CCCCCCCC) was -3.97 kcal/mol and the “solvation free energy, 298 K” value (in CN1CCCC1=O) was -4.67 kcal/mol. For the same molecule, the “solvation free energy, 298 K” value (in CO) was -4.87 kcal/mol, the “solvation free energy, 298 K” value (in NC=O) was -3.77 kcal/mol and the “solvation free energy, 298 K” value (in O) was -3.01 kcal/mol. For the same molecule, the “solvation free energy, 298 K” value (in O=CN1CCOCC1) was -4.49 kcal/mol and the “solvation free energy, 298 K” value (in [2H]O[2H]) was -2.89 kcal/mol.
In the case of `CCOP(=S)(OCC)SCSCC`, the “solvation free energy, 298 K” value (in O) is reported as -4.37 kcal/mol.
In the case of `CC(C)CCO`, the “solvation free energy, 298 K” value (in Brc1ccccc1) is reported as -5.27 kcal/mol, the “solvation free energy, 298 K” value (in C1CCOC1) is reported as -6.32 kcal/mol and the “solvation free energy, 298 K” value (in CC#N) is reported as -5.58 kcal/mol. For the same molecule, the “solvation free energy, 298 K” value (in CC(C)O) was -6.51 kcal/mol, the “solvation free energy, 298 K” value (in CCCCCC) was -4.05 kcal/mol and the “solvation free energy, 298 K” value (in CCCCCCC) was -3.96 kcal/mol. For the same molecule, the “solvation free energy, 298 K” value (in CCCCCCCC) was -3.98 kcal/mol, the “solvation free energy, 298 K” value (in CCCCCCCCCCO) was -6.18 kcal/mol and the “solvation free energy, 298 K” value (in CCCCCCCCO) was -6.08 kcal/mol. The “solvation free energy, 298 K” value (in CCCCOC(C)=O) was -5.78 kcal/mol, the “solvation free energy, 298 K” value (in CO) was -6.77 kcal/mol and the “solvation free energy, 298 K” value (in Cc1ccc(C)cc1) was -4.93 kcal/mol. The “solvation free energy, 298 K” value (in Cc1cccc(C)c1) was -4.93 kcal/mol, the “solvation free energy, 298 K” value (in Cc1ccccc1C) was -4.94 kcal/mol and the “solvation free energy, 298 K” value (in Clc1ccccc1) was -5.13 kcal/mol. For the same molecule, the “solvation free energy, 298 K” value (in O) was -4.41 kcal/mol and the “solvation free energy, 298 K” value (in [2H]O[2H]) was -4.43 kcal/mol.
For `CCOP(=S)(OCC)Oc1nc(Cl)c(Cl)cc1Cl`, the “solvation free energy, 298 K” value [1] was -14.4 kcal/mol.
In the case of `Clc1ccc(-c2ccc(Cl)c(Cl)c2Cl)c(Cl)c1Cl`, the “solvation free energy, 298 K” value (in O) is reported as -3.6 kcal/mol.
In the case of `CCCCCCCCCCCCCCO`, the “solvation free energy, 298 K” value (in CC(C)O) is reported as -12.3 kcal/mol, the “solvation free energy, 298 K” value (in CCC(C)=O) is reported as -12.6 kcal/mol and the “solvation free energy, 298 K” value [1] is reported as -9.9 kcal/mol. The “solvation free energy, 298 K” value (in CCCCCCCCCCO) was -12.1 kcal/mol, the “solvation free energy, 298 K” value (in CCCCCCO) was -12.2 kcal/mol and the “solvation free energy, 298 K” value (in O) was -3.08 kcal/mol.
With `CC(C)=CCCC(C)C1C=CC(C)=CC1` (stereo not drawn) the “solvation free energy, 298 K” value (in O) was -0.11 kcal/mol.
With `CCCCCCCCl` the “solvation free energy, 298 K” value (in O) was 0.29 kcal/mol.
For `CC(C)CCC(C)O` (stereo not drawn), the “solvation free energy, 298 K” value (in CCCCCCCC) was -5.33 kcal/mol and the “solvation free energy, 298 K” value (in CCCCCCCCCC) was -5.22 kcal/mol.
For `C1COCCOCCOCCOCCO1`, the “solvation free energy, 298 K” value (in Cc1cccc(C)c1) was -10.9 kcal/mol and the “solvation free energy, 298 K” value (in O) was -12.8 kcal/mol.
In the case of `C=CCC=CC`, the “solvation free energy, 298 K” value (in C=CCCCCCCCCCCCCCC) is reported as -3.46 kcal/mol and the “solvation free energy, 298 K” value (in O) is reported as 1.09 kcal/mol.
For `Clc1ccc(-c2cc(Cl)c(Cl)c(Cl)c2)cc1Cl`, the “solvation free energy, 298 K” value (in O) was -3.79 kcal/mol.
In the case of `O=C=S`, the “solvation free energy, 298 K” value (in CC1COC(=O)O1) is reported as -1.15 kcal/mol, the “solvation free energy, 298 K” value (in CN1CCCC1=O) is reported as -1.41 kcal/mol and the “solvation free energy, 298 K” value (in COCCOCCOCCOCCOC) is reported as -1.41 kcal/mol. The “solvation free energy, 298 K” value (in O) was 0.41 kcal/mol.
For `CC(C)I`, the “solvation free energy, 298 K” value (in CCO) was -3.98 kcal/mol and the “solvation free energy, 298 K” value (in O) was -0.46 kcal/mol.
For `Nc1ccc(O)c2c1C(=O)c1ccccc1C2=O`, the “solvation free energy, 298 K” value (in O) was -9.53 kcal/mol.
With `CC(C)=NO` the “solvation free energy, 298 K” value (in CCCCCC) was -3.74 kcal/mol.
With `[H][H]` the “solvation free energy, 298 K” value (in CCCCCCCCO) was 1.76 kcal/mol and the “solvation free energy, 298 K” value (in O) was 2.35 kcal/mol.
For `CCCCCC1CCCC1`, the “solvation free energy, 298 K” value (in O) was 2.55 kcal/mol.
For `Nc1ccc2ccccc2c1`, the “solvation free energy, 298 K” value (in CCCCCC) was -8.89 kcal/mol, the “solvation free energy, 298 K” value (in CCCCCCCC) was -8.96 kcal/mol and the “solvation free energy, 298 K” value (in O) was -7.47 kcal/mol.
With `CCCc1ccc(O)c(OC)c1` the “solvation free energy, 298 K” value (in O) was -5.26 kcal/mol.
For `CCCNCCC`, the “solvation free energy, 298 K” value (in O) was -3.65 kcal/mol.
With `O=C(O)c1ccc(Br)cc1` the “solvation free energy, 298 K” value (in CN(C)C=O) was -12.3 kcal/mol and the “solvation free energy, 298 K” value (in O) was -6.67 kcal/mol.
In the case of `C=C1C=CC(C(C)C)CCC(C)=CCC1` (stereo not drawn), the “solvation free energy, 298 K” value (in O) is reported as 0.14 kcal/mol.
With `CCCC(C)C(C)O` (stereo not drawn) the “solvation free energy, 298 K” value (in CCCCCCCC) was -5.31 kcal/mol and the “solvation free energy, 298 K” value (in CCCCCCCCCC) was -5.27 kcal/mol.
With `CCCCCC(=O)OCC` the “solvation free energy, 298 K” value (in O) was -2.24 kcal/mol.
